According to ChEMBL document CHEMBL1255530, “3D-QSAR CoMFA study of benzoxazepine derivatives as mGluR5 positive allosteric modulators” (Bioorg Med Chem Lett, 2010):

The molecules below were run against Metabotropic glutamate receptor 5 (Rattus norvegicus, UniProt P31424) (assay: Positive allosteric modulation of rat mGluR5 expressed in HEK293 cells).
Metabotropic glutamate receptor 5, sequence (P31424 whole entry): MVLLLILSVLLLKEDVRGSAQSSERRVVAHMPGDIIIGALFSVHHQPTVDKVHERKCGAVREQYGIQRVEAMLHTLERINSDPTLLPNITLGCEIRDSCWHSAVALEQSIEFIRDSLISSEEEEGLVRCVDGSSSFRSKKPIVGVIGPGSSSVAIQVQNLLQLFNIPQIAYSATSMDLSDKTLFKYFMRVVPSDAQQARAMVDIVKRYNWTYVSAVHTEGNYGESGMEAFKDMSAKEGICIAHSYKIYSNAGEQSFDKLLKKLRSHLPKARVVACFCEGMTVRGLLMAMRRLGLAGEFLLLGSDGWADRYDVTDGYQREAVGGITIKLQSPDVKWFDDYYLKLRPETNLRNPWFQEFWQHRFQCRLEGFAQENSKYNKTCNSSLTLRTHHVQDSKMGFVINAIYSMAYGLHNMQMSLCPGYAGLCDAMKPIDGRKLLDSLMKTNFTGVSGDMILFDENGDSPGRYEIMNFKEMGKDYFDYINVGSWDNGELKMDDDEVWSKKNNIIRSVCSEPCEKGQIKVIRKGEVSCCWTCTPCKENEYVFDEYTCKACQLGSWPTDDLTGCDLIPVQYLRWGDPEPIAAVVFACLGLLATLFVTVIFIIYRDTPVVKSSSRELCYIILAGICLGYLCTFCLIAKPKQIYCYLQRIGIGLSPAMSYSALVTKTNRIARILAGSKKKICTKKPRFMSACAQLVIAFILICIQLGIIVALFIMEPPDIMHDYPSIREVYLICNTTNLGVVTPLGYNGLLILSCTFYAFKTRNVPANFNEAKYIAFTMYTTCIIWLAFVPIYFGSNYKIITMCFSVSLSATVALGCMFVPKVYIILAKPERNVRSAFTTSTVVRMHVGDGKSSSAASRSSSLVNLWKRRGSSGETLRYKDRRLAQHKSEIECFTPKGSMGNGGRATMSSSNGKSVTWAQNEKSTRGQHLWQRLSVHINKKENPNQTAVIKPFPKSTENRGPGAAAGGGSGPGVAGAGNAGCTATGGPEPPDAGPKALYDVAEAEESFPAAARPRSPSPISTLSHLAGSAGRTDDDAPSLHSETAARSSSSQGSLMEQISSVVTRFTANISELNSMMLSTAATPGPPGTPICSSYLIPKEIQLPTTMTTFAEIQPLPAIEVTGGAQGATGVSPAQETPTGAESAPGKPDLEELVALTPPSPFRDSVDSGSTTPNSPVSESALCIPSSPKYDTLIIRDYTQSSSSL

In order of rising EC50:
1. C=CCSc1nnc2c(n1)O[C@@H](c1cccs1)N(C(=O)CC)c1ccccc1-2  57.5 nM
2. CCSc1nnc2c(n1)O[C@@H](c1cc(Br)ccc1OC)N(C(C)=O)c1ccccc1-2  120 nM
3. CCCC(=O)N1c2ccccc2-c2nnc(SCC)nc2O[C@H]1c1cccs1  263 nM
4. C=CCSc1nnc2c(n1)O[C@@H](c1ccccn1)N(C(=O)CC)c1ccccc1-2  437 nM
5. CCSc1nnc2c(n1)O[C@@H](c1ccc(OC)cc1OC)N(C(C)=O)c1ccccc1-2  490 nM
6. CCSc1nnc2c(n1)O[C@@H](c1ccc(Cl)cc1)N(C(C)=O)c1ccccc1-2  676 nM
7. CCSc1nnc2c(n1)O[C@@H](c1ccc(OC(C)=O)cc1)N(C(C)=O)c1ccccc1-2  813 nM
8. CCSc1nnc2c(n1)O[C@@H](c1ccc(OC)c(Br)c1)N(C(C)=O)c1ccccc1-2  955 nM
9. CCSc1nnc2c(n1)O[C@@H](/C=C/c1ccco1)N(C(C)=O)c1ccccc1-2  1170 nM
10. CCSc1nnc2c(n1)O[C@@H](c1cccn1C)N(C(=O)CC)c1ccccc1-2  1260 nM
11. CCSc1nnc2c(n1)O[C@@H](c1cc(Cl)ccc1OC(C)=O)N(C(C)=O)c1ccccc1-2  1580 nM
12. CCOc1cc([C@@H]2Oc3nc(SCC)nnc3-c3ccccc3N2C(C)=O)ccc1OC(C)=O  1950 nM
13. CSc1nnc2c(n1)O[C@@H](c1ccc(Cl)cc1)N(C(C)=O)c1ccccc1-2  2090 nM
14. CCOC(=O)COc1ccccc1[C@@H]1Oc2nc(SC)nnc2-c2ccccc2N1C(=O)CC  2190 nM
15. CCSc1nnc2c(n1)O[C@@H](c1cccc(C)c1OC(C)=O)N(C(C)=O)c1ccccc1-2  2820 nM
16. CCOc1cc([C@@H]2Oc3nc(SC)nnc3-c3ccccc3N2C(=O)CC)ccc1OC(=O)CC  2820 nM
17. CCC(=O)Oc1ccc([C@@H]2Oc3nc(SC)nnc3-c3ccccc3N2C(=O)CC)cc1  3630 nM
18. CCCCOc1ccccc1[C@@H]1Oc2nc(SC)nnc2-c2ccccc2N1C(=O)CC  3720 nM
19. CCSc1nnc2c(n1)O[C@@H](c1ccc(N(C)C)cc1)N(C(C)=O)c1ccccc1-2  4270 nM
20. CCSc1nnc2c(n1)O[C@@H](c1ccc(OCc3ccccc3)cc1)N(C(C)=O)c1ccccc1-2  6030 nM
